Assay results as given in ChEMBL document CHEMBL4354795, “Amino Acid Scanning at P5' within the Bowman-Birk Inhibitory Loop Reveals Specificity Trends for Diverse Serine Proteases” (J Med Chem, 2019).
pIC50, pKi: −log10 of the molar value. Bridge positions count the residues as written; N and C are the ends. Peptide text beside a SMILES is read from it.

What was measured:
[1] = target: T1, Kallikrein-5 (Homo sapiens, UniProt Q9Y337); experiment: Inhibition of recombinant human KLK5 expressed in expressed in Pichia pastoris X-33 cells using Boc-VPR-MCA as susbtrate measured every 60 secs for 10 mins by fluorescence based assay
T1 sequence (Q9Y337 whole entry): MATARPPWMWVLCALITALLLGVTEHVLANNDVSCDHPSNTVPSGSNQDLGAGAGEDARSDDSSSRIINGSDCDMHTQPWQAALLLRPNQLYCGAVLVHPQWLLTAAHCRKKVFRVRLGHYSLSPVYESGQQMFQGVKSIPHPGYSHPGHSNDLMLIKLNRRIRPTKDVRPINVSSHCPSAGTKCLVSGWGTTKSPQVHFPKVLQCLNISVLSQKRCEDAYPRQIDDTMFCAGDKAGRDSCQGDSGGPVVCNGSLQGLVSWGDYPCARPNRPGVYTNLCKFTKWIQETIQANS

[2] = target: T2, Kallikrein-7 (Homo sapiens, UniProt P49862); experiment: Inhibition of recombinant human KLK7 expressed in expressed in Pichia pastoris X-33 cells using KHLY-pNA as susbtrate measured every 15 secs for 10 mins by colorimetric analysis
Target sequence in this assay (P49862 whole entry): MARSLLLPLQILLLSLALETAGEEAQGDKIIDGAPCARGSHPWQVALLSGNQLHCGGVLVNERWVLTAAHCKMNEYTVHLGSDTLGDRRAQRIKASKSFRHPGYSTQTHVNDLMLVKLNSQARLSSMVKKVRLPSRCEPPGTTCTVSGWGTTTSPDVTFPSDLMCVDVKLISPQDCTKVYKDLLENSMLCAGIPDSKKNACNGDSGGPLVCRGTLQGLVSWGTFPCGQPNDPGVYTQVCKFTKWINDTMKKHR

[3] = Inhibition of human cationic trypsin using Boc-VPR-MCA as susbtrate measured every 60 secs for 10 mins by fluorescence based assay
[4] = target: T3, Suppressor of tumorigenicity 14 protein (Homo sapiens, UniProt Q9Y5Y6); experiment: Inhibition of recombinant human matriptase using Boc-QAR-MCA as susbtrate measured every 60 secs for 10 mins by fluorescence based assay
T3 sequence (Q9Y5Y6 whole entry): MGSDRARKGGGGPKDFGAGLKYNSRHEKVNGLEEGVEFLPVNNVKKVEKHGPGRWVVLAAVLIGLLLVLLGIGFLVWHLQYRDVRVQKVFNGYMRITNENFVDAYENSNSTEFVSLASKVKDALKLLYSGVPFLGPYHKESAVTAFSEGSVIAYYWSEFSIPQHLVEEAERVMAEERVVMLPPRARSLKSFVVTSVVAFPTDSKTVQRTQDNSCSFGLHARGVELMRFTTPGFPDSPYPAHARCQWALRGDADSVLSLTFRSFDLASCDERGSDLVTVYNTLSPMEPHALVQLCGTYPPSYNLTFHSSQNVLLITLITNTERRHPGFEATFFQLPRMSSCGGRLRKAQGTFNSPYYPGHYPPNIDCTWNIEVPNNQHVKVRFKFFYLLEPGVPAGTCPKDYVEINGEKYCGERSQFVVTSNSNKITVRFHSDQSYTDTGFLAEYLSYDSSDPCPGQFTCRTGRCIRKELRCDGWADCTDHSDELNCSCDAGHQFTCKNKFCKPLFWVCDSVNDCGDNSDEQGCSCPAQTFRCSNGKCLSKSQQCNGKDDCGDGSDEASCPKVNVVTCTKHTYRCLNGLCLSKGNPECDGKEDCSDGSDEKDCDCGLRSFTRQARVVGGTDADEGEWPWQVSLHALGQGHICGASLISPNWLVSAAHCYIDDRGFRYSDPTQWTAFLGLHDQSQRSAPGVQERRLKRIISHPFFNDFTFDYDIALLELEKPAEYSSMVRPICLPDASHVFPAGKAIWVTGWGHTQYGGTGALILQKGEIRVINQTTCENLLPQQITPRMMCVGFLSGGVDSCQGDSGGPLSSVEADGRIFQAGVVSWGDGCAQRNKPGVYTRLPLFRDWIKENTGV

[5] = target: T2, Kallikrein-7; experiment: Inhibition of recombinant human KLK7 expressed in expressed in Pichia pastoris X-33 cells at 5 uM using KHLY-pNA as susbtrate measured every 15 secs for 10 mins by colorimetric analysis relative to control
Target sequence in this assay (P49862 30-253 limits assumed): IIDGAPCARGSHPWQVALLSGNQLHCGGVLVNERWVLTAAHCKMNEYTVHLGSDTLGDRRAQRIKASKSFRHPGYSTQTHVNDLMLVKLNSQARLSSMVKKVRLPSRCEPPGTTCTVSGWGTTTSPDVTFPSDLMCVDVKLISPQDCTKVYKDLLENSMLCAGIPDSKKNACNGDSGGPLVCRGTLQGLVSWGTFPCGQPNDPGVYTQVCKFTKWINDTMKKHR

[6] = target: T2, Kallikrein-7; experiment: Inhibition of recombinant human KLK7 expressed in expressed in Pichia pastoris X-33 cells at 10 uM using KHLY-pNA as susbtrate measured every 15 secs for 10 mins by colorimetric analysis relative to control
Target sequence in this assay (P49862 30-253 limits assumed): as above

[7] = species on record: Homo sapiens; experiment: Inhibition of human cationic trypsin at 10 uM using Boc-VPR-MCA as susbtrate measured every 60 secs for 10 mins by fluorescence based assay relative to control
[8] = target: T4, Suppressor of tumorigenicity 14 protein (Homo sapiens) (UniProt Q9Y5Y6); experiment: Inhibition of recombinant human matriptase at 10 uM using Boc-QAR-MCA as susbtrate measured every 60 secs for 10 mins by fluorescence based assay relative to control
T4 sequence (whole entry): T3 sequence (Q9Y5Y6 whole entry)

[9] = target: T2, Kallikrein-7; experiment: Inhibition of recombinant KLK7 (unknown origin) expressed in Pichia pastoris X-33 cells using p-NA peptide as substrate measured every 10 secs for 300 secs by spectrophotometric analysis
Target sequence in this assay (P49862 whole entry): as the sequence (P49862 whole entry) above

[10] = target: T1, Kallikrein-5; experiment: Inhibition of recombinant KLK5 (unknown origin) expressed in Pichia pastoris X-33 cells using pNA peptide as susbtrate measured every 10 secs for 300 secs by spectrometric analysis
[11] = target: T3, Suppressor of tumorigenicity 14 protein; experiment: Inhibition of recombinant human matriptase catalytic domain using Boc-QARAMC as substrate preincubated for 1 hr followed by substrate addition

SMILES	pKi [1]	pIC50 [2]	pIC50 [3]	pIC50 [4]	further results
N=C(N)NCCC[C@@H]1NC(=O)[C@H](Cc2cnc[nH]2)NC(=O)[C@@H]2CSSC[C@H](NC(=O)[C@H](CCC(=O)O)NC(=O)[C@@H]3CCCN3C(=O)[C@@H]3CCCN3C(=O)[C@H](Cc3ccc(O)cc3)NC(=O)[C@H](CO)NC1=O)C(=O)N[C@@H](Cc1c[nH]c3ccccc13)C(=O)N1CCC[C@H]1C(=O)N[C@@H](CC(N)=O)C(=O)NCC(=O)N[C@@H](Cc1ccccc1)C(=O)N2	8.62	< 5.30	< 5.00	< 5.00	inhibition [5]: < 50%
N=C(N)NCCC[C@@H]1NC(=O)[C@H](Cc2cnc[nH]2)NC(=O)[C@@H]2CSSC[C@H](NC(=O)[C@H](CC(=O)O)NC(=O)[C@@H]3CCCN3C(=O)[C@@H]3CCCN3C(=O)[C@H](Cc3ccc(O)cc3)NC(=O)[C@H](CO)NC1=O)C(=O)N[C@@H](Cc1ccccc1)C(=O)N1CCC[C@H]1C(=O)N[C@@H](CC(N)=O)C(=O)NCC(=O)N[C@@H](Cc1ccccc1)C(=O)N2 (cyclo(CFPNGFCHRSYPPD); disulfide 1-7)	8.05				
N=C(N)NCCC[C@@H]1NC(=O)[C@H](Cc2cnc[nH]2)NC(=O)[C@@H]2CSSC[C@H](NC(=O)[C@H](CCC(=O)O)NC(=O)[C@@H]3CCCN3C(=O)[C@@H]3CCCN3C(=O)[C@H](Cc3ccc(O)cc3)NC(=O)[C@H](CO)NC1=O)C(=O)N[C@@H](Cc1ccccc1)C(=O)N1CCC[C@H]1C(=O)N[C@@H](CC(N)=O)C(=O)NCC(=O)N[C@@H](Cc1ccccc1)C(=O)N2 (cyclo(CFPNGFCHRSYPPE); disulfide 1-7)	8.43	< 5.00	< 5.00	< 5.00	inhibition [6]: < 50%; inhibition [7]: < 50%; inhibition [8]: < 50%
CC[C@H](C)[C@@H]1NC(=O)[C@@H]2CCCN2C(=O)[C@@H]2CCCN2C(=O)[C@H]([C@@H](C)CC)NC(=O)[C@H](CO)NC(=O)[C@H](CCCCN)NC(=O)[C@H]([C@@H](C)O)NC(=O)[C@@H]2CSSC[C@H](NC1=O)C(=O)N[C@@H](Cc1ccccc1)C(=O)N1CCC[C@H]1C(=O)N[C@@H](CC(N)=O)C(=O)NCC(=O)N[C@@H](CCCNC(=N)N)C(=O)N2 (cyclo(CFPNGRCTKSIPPI); disulfide 1-7)					pIC50 [9]: < 5.00; pKi [10]: 6.84; pKi [11]: 6.70
N=C(N)NCCC[C@@H]1NC(=O)[C@H](CC(N)=O)NC(=O)[C@@H]2CSSC[C@H](NC(=O)[C@H](CC(=O)O)NC(=O)[C@@H]3CCCN3C(=O)[C@@H]3CCCN3C(=O)[C@H](Cc3ccc(O)cc3)NC(=O)[C@H](CO)NC1=O)C(=O)N[C@@H](Cc1ccccc1)C(=O)N1CCC[C@H]1C(=O)N[C@@H](CC(N)=O)C(=O)NCC(=O)N[C@@H](Cc1ccc(O)cc1)C(=O)N2 (cyclo(CFPNGYCNRSYPPD); disulfide 1-7)	9.14				
N=C(N)NCCC[C@@H]1NC(=O)[C@H](CC(N)=O)NC(=O)[C@@H]2CSSC[C@H](NC(=O)[C@H](CCC(=O)O)NC(=O)[C@@H]3CCCN3C(=O)[C@@H]3CCCN3C(=O)[C@H](Cc3ccc(O)cc3)NC(=O)[C@H](CO)NC1=O)C(=O)N[C@@H](Cc1ccccc1)C(=O)N1CCC[C@H]1C(=O)N[C@@H](CC(N)=O)C(=O)NCC(=O)N[C@@H](Cc1ccc(O)cc1)C(=O)N2 (cyclo(CFPNGYCNRSYPPE); disulfide 1-7)	9.47	< 5.00	< 5.70	< 5.00	
